The target in test [1] is T1, human MCT2 (Homo sapiens, UniProt O60669).
T1 construct: The full length open reading frame for human MCT2 was then subcloned into the S. cerevisiae expression plasmid, pACES14; made in house; host or cells: Saccharomyces cerevisiae BY4742 (jen1 deletion), membrane preparation; plasmid pACES14-hMCT2
T1 sequence (O60669 1-478): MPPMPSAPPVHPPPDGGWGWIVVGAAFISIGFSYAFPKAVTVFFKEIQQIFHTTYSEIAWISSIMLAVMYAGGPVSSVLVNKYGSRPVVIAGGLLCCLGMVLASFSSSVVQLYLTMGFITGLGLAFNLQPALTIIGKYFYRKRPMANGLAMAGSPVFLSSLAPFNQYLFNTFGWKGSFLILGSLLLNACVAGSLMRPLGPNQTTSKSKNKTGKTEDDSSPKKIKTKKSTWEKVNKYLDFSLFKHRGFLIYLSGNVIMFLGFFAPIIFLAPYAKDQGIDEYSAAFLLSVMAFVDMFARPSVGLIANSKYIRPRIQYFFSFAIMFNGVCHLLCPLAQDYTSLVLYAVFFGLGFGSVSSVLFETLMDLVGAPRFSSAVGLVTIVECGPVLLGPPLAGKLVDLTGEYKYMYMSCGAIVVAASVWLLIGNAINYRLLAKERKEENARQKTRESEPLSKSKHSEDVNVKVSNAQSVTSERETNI
Kind of test: MCT filter binding assay, yeast membranes, radioligand specific binding. The conditions noted are these: ~2.5 nM radioligand. The method, then:
(§1) For yeast cells transformed with expression plasmids containing the human MCT 1-4 ORFs the ability of membrane preparations to bind radioligand was determined using a single ligand concentration/multi protein concentration binding assay. This generated an estimate of the amount of active binding protein present in each membrane preparation. The ligand concentration used will give an estimate of Bmax that is approximately 90% of the true value. 10 μl of ligand A, B or C that had been diluted 50 fold with assay buffer (50 mM HEPES, 0.1 mM EDTA, 0.15 M NaCl, pH 7.5, 0.5% BSA) was dispensed into wells of a polypropylene microtitre plate. This gives a final radiolabelled ligand concentration of ˜2.5 nM. […] The membranes were diluted to give a known amount/180 μl assay buffer. This is typically in the […] range. For the membranes with high binding site number a more dilute membrane preparation should be added. 180 μl of each membrane solution was then added to each well and incubated at 2 hours at room temperature with shaking. The membranes were harvested onto GF-B filter plates and washed with assay buffer without BSA, dried, scintillant added and counts detected using the relevant program for each ligand on a Packard Top Count plate reader.

The target in test [2] is T2, human MCT3 (Homo sapiens, UniProt O95907).
T2 construct: the full length open reading frame of human MCT3 was subcloned into the S. cerevisiae expression plasmid pACES14; made in house; host or cells: Saccharomyces cerevisiae BY4742 (jen1 deletion), membrane preparation; plasmid pACES14-hMCT3
T2 sequence (O95907 1-504): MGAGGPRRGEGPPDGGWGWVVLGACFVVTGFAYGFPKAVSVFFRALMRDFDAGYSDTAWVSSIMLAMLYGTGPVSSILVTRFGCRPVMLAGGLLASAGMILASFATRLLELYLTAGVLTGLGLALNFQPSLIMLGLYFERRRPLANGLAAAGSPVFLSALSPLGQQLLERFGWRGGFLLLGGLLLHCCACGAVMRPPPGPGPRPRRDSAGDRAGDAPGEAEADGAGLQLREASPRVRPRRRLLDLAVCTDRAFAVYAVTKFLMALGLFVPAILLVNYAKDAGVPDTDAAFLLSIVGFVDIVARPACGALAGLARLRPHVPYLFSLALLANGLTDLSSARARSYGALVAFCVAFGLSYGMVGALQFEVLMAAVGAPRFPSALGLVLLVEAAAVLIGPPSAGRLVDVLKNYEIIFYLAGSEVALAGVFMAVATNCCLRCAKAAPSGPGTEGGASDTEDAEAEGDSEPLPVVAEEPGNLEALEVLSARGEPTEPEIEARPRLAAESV
The test is described as above. The note with it: ~2.5 nM radioligand. The method, then: as §1

Test [3] addresses T3, human MCT4 (Homo sapiens, UniProt O15427).
T3 construct: from the full length copy and subcloned into the S. cerevisiae expression plasmid pACES14; made in house; host or cells: Saccharomyces cerevisiae BY4742 (jen1 deletion), membrane preparation; plasmid pACES14-hMCT4
T3 sequence (O15427 1-465): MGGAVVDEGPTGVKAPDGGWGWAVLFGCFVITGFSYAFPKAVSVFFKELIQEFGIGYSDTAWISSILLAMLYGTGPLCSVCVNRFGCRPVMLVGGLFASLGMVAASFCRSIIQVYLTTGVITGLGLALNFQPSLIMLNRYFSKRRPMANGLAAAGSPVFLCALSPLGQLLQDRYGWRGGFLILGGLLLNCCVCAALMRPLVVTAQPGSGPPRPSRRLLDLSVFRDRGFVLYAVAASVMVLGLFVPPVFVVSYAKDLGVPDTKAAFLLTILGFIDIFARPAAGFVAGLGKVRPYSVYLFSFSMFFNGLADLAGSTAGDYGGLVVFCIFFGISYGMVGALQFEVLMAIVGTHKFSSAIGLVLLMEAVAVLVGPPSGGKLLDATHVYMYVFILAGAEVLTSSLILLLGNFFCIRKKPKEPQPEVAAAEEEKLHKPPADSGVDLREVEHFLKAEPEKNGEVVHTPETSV
The description is as above. The conditions noted are these: ~2.5 nM radioligand. The method, then: as §1

The test system of test [4] is Jurkat T-cell membranes. The class given is binding, human. On the procedure:
Cells were harvested by centrifugation at 1500 g for 10 minutes. The cell pellets were washed twice with phosphate buffered saline (PBS) and centrifuged as above. The final cell pellet was resuspended in lysis buffer (50 mM HEPES (pH 7.8), 50 mM KCl, 10% glycerol, 0.1 mM EDTA, 1 mM DTT) and lysed by nitrogen cavitation. Unlysed cells and nuclei were removed by centrifugation at 1500 g for 10 minutes. The supernatant was then centrifuged at 100,000 g for 30 minutes at 4° C., and the pellet resuspended and homogenised in assay buffer (50 mM HEPES (pH 7.5), 1 mM EDTA, 150 mM NaCl). Aliquots of membrane preparation were stored at −80° C. until use.
Frozen Jurkat cell membranes were thawed on ice and then homogenised. Wheatgerm agglutinin-linked Scintillation Proximity Assay beads (Amersham) were rehydrated in assay buffer to a concentration of 100 mg/ml. 2 ml of Jurkat membranes were added per 0.5 ml (50 mg) of SPA beads and incubated overnight with constant agitation to allow the beads to coat with Jurkat membranes. […] 10 μl of test compound and 10 μl of radioligand were incubated with 180 μl of SPA beads and membranes (0.04 mg beads). […] The plates were incubated for 3 hours at room temperature before quantitation of radioactivity proximal to the SPA beads by scintillation counting.

In the case of `CC(C)Cc1nn(C)c(=O)c2c(SCCCO)n(Cc3ccccc3[125I])cc12` [Ligand A, 2,6-Dihydro-7-[(3-hydroxypropyl)thio]-6-[(2-[^125I]iodophenyl)methyl]-2-methyl-4-(2-methylpropyl)-1H-pyrrolo[3,4-d]pyridazin-1-one], the “Specific binding (cpm) Average” value is listed as 7286 cpm in test [1] (MCT2 (2 ug)); 14769 cpm in test [1] (MCT2 (20 ug)); 0 cpm in test [2] (MCT3 (2 ug)); 0 cpm in test [2] (MCT3 (20 ug)); 405 cpm in test [3] (MCT4 (2 ug)); 872 cpm in test [3] (MCT4 (20 ug)). For the same compound, the “125I-ligand A binding (cpm), Specific binding (Total - Non-specific)” value in test [4] came out at 1991 cpm. Besides, the “125I-ligand A binding (cpm), Total binding” value in test [4] (approximately 0.1 nM radioligand, vehicle alone) was 2490 ± 32 cpm. Further, the “125I-ligand A binding (cpm), Non-specific binding” value in test [4] (in the presence of 1 μM Ligand 1) amounted to 499 ± 20 cpm.

Source of the values: patent publication US20040072746A1, “Inhibitors of monocarboxylate transport” (priority 2001, published 2004).
